The nature of data set [1]: Acute seven-day toxicity (LD50), single oral application. Further details: species or system mice (white NMRI). As to conditions: mouse, in vivo, p.o., mice. The method, then: The acute seven-day toxicity is determined by a single application per os and intraperitoneally to white fasting NMRI mice. The computation of the LD50 values was effected via EDV by a probit analysis (Cavalli-Sforza, publisher Gustav Fischer, 1964, Grundbegriffe der Biometrie).

Data set [2] relates to mice. As to the kind of experiment: Pentetrazol induced convulsions (anticonvulsive). The class given is in vivo. As to conditions: Mus musculus, po, 1 h, p.o., 60 min before pentetrazol 100 mg/kg s.c., read-out: Pentetrazol spasm ED50. As to the method: (§1) (2) Anti-convulsive properties
(a) Pentetrazol induced convulsions
The compounds were tested after per oral administration to groups of six mice each. Sixty minutes after application of the test compounds pentetrazol was injected subcutaneously at a dosage of 100 mg/kg. The appearance of clonic and tonic convulsions was checked through a total observation time of 45 minutes. The protective effects of the compounds against convulsions were determined in control tests with comparison compounds. The effective dose ED50 was computed from the probit logarithmic dosage curves (modified according to J. E. Blum et al. Arzneimittel-Forsch. 23, 377 [1973]).
(§2) The results obtained by these tests show the anticonvulsive activity of the test substances. According to the medical literature this is an important criteria for the appraising of the clinical effectiveness of tranquilizers.

In data set [3] the test system is mice. As to the kind of experiment: Maximum electroshock (anticonvulsive). As to conditions: Mus musculus, po, 1 h, orally, 60 min before electroshock. It is filed as in vivo. The method, then: as §1
The test substances were applied orally to the animals. Sixty minutes after application electrodes were fastened to the ears of the mice and an electric shock was effected. The dose was then determined at which in half of the animals tonic contractions in the rear extremities were prevented. The computation of the ED50 was again effected by means of the above-noted probit analysis (modified according to J. Swinyard, J. Pharmacol. exptl. Therap.-106, 93 [1952]).
as §2

Data set [4] relates to mice. The data set can be described thus: Isolation aggressiveness (anxiety relieving and anti-aggressive activity). It is filed as in vivo. The settings on record: Mus musculus, po, 0.5 h; orally, after 30 minutes, isolated mice. The method, then: (3) Anxiety relieving and anti-aggressive activity. Inhibition of the aggressiveness of a mouse caused by isolation.
Before the test the mice were kept for four weeks in strict isolation in single cages. After that time the mice which had been kept in isolation spontaneously attacked other mice which were introduced then and which had not been isolated. The test substances were administered to the isolated mice orally.
The results shown in these tests permit useful conclusions regarding the anxiety, stress and tension-relieving properties of the compound.

For data set [5], the system named is mice. As to the kind of experiment: Test de la traction (musculotropic properties). It is filed as in vivo. As to conditions: for Quotient 2: ED50 test de la traction / ED50 isolation aggressiveness; for ED50: Mus musculus, po, 2 h, p.o., after 120 minutes, mice. The method, then: (4) Musculotropic properties
This test is called the "test de la traction". In this test the compounds were administered to the mice per os. After 120 minutes the mice were suspended with their front paws from a thin horizontally extending wire. […] These tests have the purpose to check the effects on the muscle tone by the compounds.
The ED50 values was effected via EDV by a probit analysis.

Data set [6] has as its system mice. The data set can be described thus: Prolongation of hexobarbital induced sleep (C.N.S. quieting properties). It is filed as in vivo. As to conditions: for Quotient 1: ED50 elongation of hexobarbital induced sleep / ED50 isolation aggressiveness; for ED50: Mus musculus, po, 0.5 h, p.o., 30 min before hexobarbital 64 mg/kg i.v., prolongation by a factor of 4 in half of the mice. The method, then: (5) C.N.S. quieting properties
(Prolongation of hexobarbital induced sleep)
The test substance was applied to the mice per os. The animals after 30 minutes received additionally an intravenous injection of 64 mg/kg of hexobarbital. […] The duration of this lateral position was then compared with the control group which had been treated only with hexobarbital.
As ED50 that dose was defined at which with one-half of the animals a prolongation of the lateral position occurred by a factor of 4 as against the control group (G. M. Everett, Nature 177, 1238 [1956]).

From US4244869A, “Benzodiazepine derivatives and process of making them” (Kali-Chemie A.G., priority 1972, dated 1981) come the findings set out here.

Broadly, the LD50 is the dose at which mortality reaches 50%. Low values mean greater toxicity, high ones lower toxicity. A word on the ED50: it is the dose that gives a 50% effect, or the effect in half of the subjects.

For the compound `CCOCC1CN=C(c2ccccc2Cl)c2cc(Br)ccc2N1C` (stereo not drawn) [Compound 2, 7-bromo-1-methyl-2-ethoxymethyl-5-(2'-chlorophenyl)-1H-2,3-dihydro-1,4-benzodiazepin], the 50% lethal dose (LD50) at 168 h in data set [1] is more than 1470 mg/kg. The 50% effective dose (ED50) came out at 2.2 mg/kg in the data set with mice [2]; 24.5 mg/kg in the data set on mice [3]; 4.1 mg/kg in the data set with mice [4]; 34.9 mg/kg in the data set with mice [5]; 41.9 mg/kg in the data set on mice [6]. For the same compound, the “Quotient 2” value in the data set with mice [5] is 8.5. The “Quotient 1” value with mice [6] came out at 10.2.
On to `CN1C(=O)CN=C(c2ccccc2)c2cc(Cl)ccc21` [Standard II, 7-chloro-1-methyl-5-phenyl-1,3-dihydro-2H-1,4-benzodiazepin-2-one, reference compound], for which the median effective dose (ED50) in the data set with mice [2] amounted to 0.5 mg/kg; in the data set on mice [3], 9 mg/kg; with mice [4], 3.6 mg/kg; in the data set with mice [5], 4.2 mg/kg; in the data set on mice [6] it was 1.5 mg/kg. Further, the “Quotient 2” value in the data set with mice [5] worked out at 1.2. Besides, in the data set with mice [6], the “Quotient 1” value is given as 0.42.
`COCC1CN=C(c2ccccc2Cl)c2cc(Cl)ccc2N1C` (stereo not drawn) [Standard I, 7-chloro-1-methyl-2-methoxymethyl-5-(2'-chlorophenyl)-1H-2,3-dihydro-1,4-benzodiazepin, reference compound] yielded an LD50 at 168 h in data set [1] of 1780 mg/kg. The ED50 is 2 mg/kg with mice [2]; 26 mg/kg in the data set on mice [3]; 68 mg/kg with mice [4]; 163 mg/kg with mice [5]; 11.7 mg/kg with mice [6]. The “Quotient 2” value in the data set with mice [5] worked out at 2.4. Further, the “Quotient 1” value with mice [6] was 0.17.
With `COCC1CN=C(c2ccccc2Cl)c2cc(Br)ccc2N1C` (stereo not drawn) [Compound 1, 7-bromo-1-methyl-2-methoxymethyl-5-(2'-chlorophenyl)-1H-2,3-dihydro-1,4-benzodiazepin], the LD50 at 168 h in data set [1] came out at 1580 mg/kg. For the same compound, the ED50 is 0.9 mg/kg with mice [2]; 3 mg/kg in the data set on mice [3]; 3.1 mg/kg with mice [4]; 87 mg/kg in the data set with mice [5]; 15.2 mg/kg with mice [6]. In addition, the “Quotient 2” value in the data set with mice [5] was determined as 28.1. Moreover, in the data set on mice [6], the “Quotient 1” value was 4.9.
On to `COCC1CN=C(c2ccccc2F)c2cc(Br)ccc2N1C` (stereo not drawn) [Compound 3, 7-bromo-1-methyl-2-methoxymethyl-5-(2'-fluorophenyl)-1H-2,3-dihydro-1,4-benzodiazepin], for which, in data set [1], the LD50 at 168 h was 1580 mg/kg. The median effective dose (ED50) in the data set on mice [2] was 0.5 mg/kg; in the data set with mice [3], 5 mg/kg; in the data set with mice [4] it was 10.7 mg/kg; in the data set on mice [5], 58.3 mg/kg; in the data set with mice [6], 10.6 mg/kg. Moreover, in the data set on mice [5], the “Quotient 2” value was 5.4. Moreover, the “Quotient 1” value with mice [6] is on record as 0.9.
